Data taken from patent US6242446A, “Method for treating attention deficit disorder” (Merck & Co., Inc., priority 2000, dated 2001).
Read-outs that look alike come from different tables or passages of the source.

What was measured:
[1] = test system: distress vocalisations in guinea-pig pups; assay: Separation-Induced Vocalisation Assay; type: in vivo, guinea-pigs; conditions: Cavia porcellus, po; 4 hr. pre-treatment; read-out: guinea-pig vocalisation (4 hr. pre-treatment) ID50
Source text: Separation-Induced Vocalisation Assay Male and female guinea-pigs pups are housed in family groups with their mothers and littermates throughout the study. Experiments are commenced […] when the pups are 2 weeks old. Before entering an experiment, the pups are screened to ensure that a vigorous vocalisation response is reproducibly elicited following maternal separation. The pups are placed individually in an observation cage (55 cm×39 cm×19 cm) in a room physically isolated from the home cage for 15 minutes and the duration of vocalisation during this baseline period is recorded. Only animals which vocalise for longer than 5 minutes are employed for drug challenge studies (approximately 50% of available pups may fail to reach this criterion). On test days each pup receives an oral dose or a s.c. or i.p. injection of test compound or vehicle and is then immediately returned to the home cage with its mother and siblings for 30 minutes to 60 minutes (or for up to 4 hours following an oral dose, dependant upon the oral pharmacokinetics of the test compound) before social isolation for 15 minutes as described above. The duration of vocalisation on drug treatment days is expressed as a percentage of the pre-treatment baseline value for each animal. The same subjects are retested once weekly for up to 6 weeks. Between 6 and 8 animals receive each test compound at each dose tested. […]

foot tapping in gerbils = assay: Gerbil Foot-Tapping Assay (induced by central injection of an NK1 agonist); type: in vivo, Mongolian gerbils; conditions: Meriones unguiculatus, iv
Source text: Gerbil Foot-Tapping Assay CNS penetrant NK-1 receptor antagonists for use in the resent invention can be identified by their ability to inhibit foot tapping in gerbils induced by anxiogenic agents (such as pentagastrin) or central infusion of NK-1 receptor agonists such as GR-73632, or caused by aversive stimulation such as foot shock or single housing, based on the method of Rupniak & Williams, Eur. J. Pharmacol., 1994, 265, 179. Male or female Mongolian gerbils (35-70 g) are anaesthetised by inhalation of an isoflurane/oxygen mixture to permit exposure of the jugular vein in order to permit administration of test compounds or vehicle in an injection volume of 5 ml/kg i.v. Alternatively, test compounds may be administered orally or by subcutaneous or intraperitoneal routes. The wound is closed and a second skin incision is made in the midline of the scalp to expose the skull. […] The duration and/or intensity of hind foot tapping is then recorded continuously for 5 minutes. Alternatively, the ability of test compounds to inhibit foot tapping evoked by aversive stimulation, such as foot shock or single housing, may be studied using a similar method of quantification.

[2] = test system: cisplatin-induced emesis in ferrets; assay: Ferret Emesis Assay (cisplatin-induced emesis); type: in vivo; conditions: Mustela putorius, po; cisplatin 10 mg/kg i.v.; 4 hours observation; read-out: ferret emesis ID90
Description: Individually housed male ferrets (1.0-2.5 kg) are dosed orally by gavage with test compound. Ten minutes later they are fed with approximately 100 g of tinned cat food. At 60 minutes following oral dosing, cisplatin (10 mg/kg) is given i.v. via a jugular vein catheter inserted under a brief period of halothane anaesthesia. The catheter is then removed, the jugular vein ligated and the skin incision closed. The ferrets recover rapidly from the anaesthetic and are mobile within 10-20 minutes. The animals are observed continuously during recovery from the anaesthetic and for 4 hours following the cisplatin injection, after which time the animals are killed humanely. The numbers of retches and vomits occurring during the 4 hours after cisplatin administration are recorded by trained observers.

SMILES: C[C@@H](O[C@H]1OCCN(Cc2n[nH]c(=O)[nH]2)[C@H]1c1ccc(F)cc1)c1cc(C(F)(F)F)cc(C(F)(F)F)c1 [2-(R)-(1-(R)-(3,5-bis(trifluoromethyl)-phenyl)-ethoxy)-3-(S)-(4-fluorophenyl)-4-(3-(5-oxo-1H,4H-1,2,4-triazolo)methyl)-morpholine]
- ED50 [1]: 0.73 mg/kg
- ED50 (foot tapping in gerbils; 5 min, i.v., 5 mins., read-out: gerbil foot-tapping (5 mins.) ID50): 0.36 mg/kg
- ED50 (foot tapping in gerbils; 24 hrs. prior to central NK1 agonist challenge, read-out: gerbil foot-tapping (24 hrs.) ID50): 0.33 mg/kg
- ED90 [2]: < 3 mg/kg
